The term DC50 denotes the concentration at which degradation of the target reaches its halfway point. A high value points to degradation only at high concentration. One may read the GI50 as the concentration at which growth is held to half of that of the control.

What all share (format): cell-based
One experiment concerns the target T1, BTK-GFP (Homo sapiens, UniProt Q06187+Q96SW2).
T1 construct: the BTK open reading frame (ORF) was first shuttled from a pcDNA-DEST40-BTK vector (Invitrogen library ID INV_20090504v1); expressed in transfected cells; host or cells: HEK293A cells (Invitrogen R70507), lentiviral transduction with pLenti6-BTK-GFP-Ires-RFP, blasticidin-selected
Nature of the experiment: BTK-GFP protein abundance flow cytometry assay in HEK293A cells. The note with it: 24 h; for BTK deg Amax %: % protein remaining at concentration of maximum degradation; for DC50: concentration at which 50% maximal degradation was observed. The method, then: (§1) Compounds of the invention were tested in the following cellular assays. The terms in Table 1 are defined as follows: DC50 refers to the concentration at which 50% maximal degradation was observed; deg Amax is the extent of degradation and the value refers to the % protein remaining at the concentration at which maximum degradation is seen; Prol GI50 refers to the proliferation data and defines the concentration at which 50% growth inhibition was observed compared to the vehicle treated control at the end of the incubation time. TMD8 cells are BTK dependent and OCI-LY3 cells are BTK independent.
BTK-GFP and IKZF3-GFP Protein Abundance Flow Cytometry Assay in HEK293A Cells:
Degradation of BTK or IKZF3 was measured in HEK293A cells (Invitrogen R70507) expressing either BTK-GFP and RFP or IKZF3-GFP and RFP from a stably integrated bicistronic BTK-GFP-iresRFP or IKZF3-GFP-iresRFP construct, respectively. Reduction of the GFP signal measured by flow cytometry served as readout for BTK or IKZF3 degradation after degrader treatment.
Stable HEK293A-BTK-GFP-iresRFP cells were maintained in complete growth medium (DMEM high Glucose+10% FCS+1% L-Glutamine+1% NEAA+1% NaPyr.) with passaging performed twice per week. On Day 0, HEK293A-BTK-GFP-iresRFP or HEK293A-IKZF3-GFP-iresRFP and HEK293A-iresRFP cells were seeded at 10,000 cells/well in a 96-well microtiter plate in 260 μl complete medium. On Day 1, cells were treated in duplicate with 10-point 1:3 dilution series of compound using the HP D300 Digital Dispenser (Tecan). DMSO concentrations were normalized across the plate to 0.1%. On Day 2, after 24 h of incubation at 37° C., treatment media was discarded, cells rinsed with 100 ul/well PBS and then detached using 40 ul trypsin/well for 5 min. Trypsin was neutralized with 100 ul/well PBS+20% FCS). Flow cytometry was performed on the samples using the BD FACS CANTO II (Becton Dickinson). Cell identification was then performed using forward (FSC) vs. side scatter (SSC) plots. Single cell discrimination is performed using SSC-Width (SSC-W) vs. SSC-Height (SSC-H) plots. Median GFP values for 5,000 single cells are used to determine BTK levels. Median GFP values from HEK293A-iresRFP are used as a background signal and thus defining 0% BTK signal. Median GFP values from DMSO treated HEK293A-BTK-GFP-iresRFP or HEK293A-IKZF3-GFP-iresRFP are used to define 100% BTK signal for subsequent DC50 curves (concentration at 50% BTK degradation). GFP and RFP are read in the channels called FITC and PE, respectively.
Concentration response curves plotting relative reduction of the GFP signal (measured by flow cytometry) versus 10 compound concentrations (starting concentration 10 μM, 3 fold dilution steps) of the compounds allowed generation of DC50 values.
In general terms: In flow cytometry, cells or beads pass a laser one at a time.

A further experiment deals with TMD8 cells. Briefly: Resazurin cell viability assay in DLBCL cells (TMD8). As to conditions: TMD8 cells (BTK dependent), 50% growth inhibition, read-out: TMD8 Prol GI50. How it is done:
as §1
(§2) Cell Viability Assay in DLBCL (Diffuse Large B-Cell Lymphoma) Cells:
(§3) The effect of the BTK compounds on cell proliferation was measured by a Resazurin (Sigma, #R7017) based cell viability assay. TMD8 (BTK compound sensitive) and OCI-LY3 (BTK compound insensitive) cells were incubated for 72 h at 37° C. and 5% CO2 with the corresponding compound. Resazurin is a non-toxic, cell-permeable substrate that is virtually non-fluorescent. Upon entering living cells, Resazurin (Sigma, #R7017) is reduced to highly fluorescent Resorufin. The metabolic activity was assessed by measuring the fluorescence signal (ex. 530 nm; em. 600 nm).
(§4) TMD8 and OCI-Ly3 cells were seeded at day 0 in triplicates at a cell density of 1×10^4 cells per 150 μl/well in a 96-well plate (Costar #3904). Additional plates were prepared, in order to assess the basal metabolic activity of both cell lines at the beginning of the experiment. For these reference plates, Resazurin (Sigma, #R7017) was added to a final concentration of 13 μg/ml 3 h post seeding and was incubated for 2 h at 37° C. and 5% CO2. Following incubation, the fluorescent signal intensity of the 96-well plates was measured on a Mithras LB940 multimode plate reader at 530/600 nm (Berthold Technologies, Germany).
(§5) In parallel, 3 h post-seeding, test-plates were treated with compound at various concentrations, or with vehicle (DMSO) alone for 3 days. The compound addition to the plates was performed by using a HP D300 digital dispenser (TECAN, Switzerland). The compounds were tested in triplicate, 8-point serial dilution (1:4), with a start concentration of 10 μM for OCI-LY3 and 1 μM for the TMD8 cells, respectively. To assess the relative proliferation of the cells, Resazurin was added to each well directly to the medium to a final concentration of 13 μg/ml. The plates were incubated for 2 h at 37° C. and 5% CO2 to result in a 72 h endpoint. Following incubation, the fluorescent signal intensity of the 96-well plates were measured on a Mithras LB940 multimode plate reader at 530/600 nm (Berthold Technologies, Germany). The formation of Resorufin dye directly correlates with the number of metabolically active cells. For each triplicate treatment the mean and standard deviation were calculated and analyzed via curve fitting software to determine the respective compound concentration resulting in 50% growth inhibition (GI50) values. For each compound GI50 values were typically determined from at least 2 entirely independent experiments.
TMD8 cells were acquired through a license agreement with Tokyo Medical and Dental University, Japan. Cells are cultivated in MEM Alpha (BioConcept, #1-23F01-I, lot. LB04262P) supplemented with 10% FCS (HyClone, GE #SH30066.03, lot AB217603), 2 mM L-Glutamine (BioConcept, #5-10K50-H, lot. LA03467P), 1% Pen/Strep (BioConcept, #4-01F00-H, lot. LB04235P).
For orientation: Alamar Blue is a resazurin reagent that responds to reducing activity.

A further experiment concerns OCI-LY3 cells. Nature of the experiment: Resazurin cell viability assay in DLBCL cells (OCI-LY3). As to conditions: OCI-LY3 cells (BTK independent), 50% growth inhibition, read-out: OCI-LY3 Prol GI50. The method, then: as §1, §2, §3, §4, §5
OCI-LY3 cells were acquired through a license agreement with University Health Network, Toronto, Canada. Cells are cultivated in RPMI1640 media (Gibco, #61870-010, lot. 1894759), supplemented with 10% FCS (HyClone, GE #SH30066.03, lot AB217603), 2 mM L-Glutamine (BioConcept, #5-10K50-H, lot. LA03467P), 1 mM Sodium Pyruvate (BioConcept, #5-60F00-H, lot. LB10510P), 10 mM HEPES (Gibco, #15630-056, lot. 1854074), 1% Pen/Strep (BioConcept, #4-01F00-H, lot. LB04235P).

Molecules are shown by their SMILES. Read-outs that look alike come from different tables or passages of the source.

T1 sequence (Q06187 whole entry): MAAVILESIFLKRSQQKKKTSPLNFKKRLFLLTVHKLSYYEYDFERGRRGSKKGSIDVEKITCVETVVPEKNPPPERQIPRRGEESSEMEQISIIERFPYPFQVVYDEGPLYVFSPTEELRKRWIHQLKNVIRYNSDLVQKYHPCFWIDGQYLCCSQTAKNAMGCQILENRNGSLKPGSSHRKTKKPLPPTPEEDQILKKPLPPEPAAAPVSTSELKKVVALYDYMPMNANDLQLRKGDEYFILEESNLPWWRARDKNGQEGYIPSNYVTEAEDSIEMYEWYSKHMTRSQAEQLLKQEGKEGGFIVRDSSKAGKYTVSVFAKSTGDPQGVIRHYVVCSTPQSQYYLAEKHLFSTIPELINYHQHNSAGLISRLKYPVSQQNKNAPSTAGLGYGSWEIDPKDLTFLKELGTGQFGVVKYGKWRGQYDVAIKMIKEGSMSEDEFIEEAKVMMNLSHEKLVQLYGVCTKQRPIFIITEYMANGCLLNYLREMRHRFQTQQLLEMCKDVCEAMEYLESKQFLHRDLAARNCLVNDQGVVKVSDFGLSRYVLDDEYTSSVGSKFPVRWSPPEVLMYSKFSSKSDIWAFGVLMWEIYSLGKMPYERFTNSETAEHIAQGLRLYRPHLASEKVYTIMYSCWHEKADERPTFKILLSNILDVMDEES
T1 sequence (Q96SW2 whole entry): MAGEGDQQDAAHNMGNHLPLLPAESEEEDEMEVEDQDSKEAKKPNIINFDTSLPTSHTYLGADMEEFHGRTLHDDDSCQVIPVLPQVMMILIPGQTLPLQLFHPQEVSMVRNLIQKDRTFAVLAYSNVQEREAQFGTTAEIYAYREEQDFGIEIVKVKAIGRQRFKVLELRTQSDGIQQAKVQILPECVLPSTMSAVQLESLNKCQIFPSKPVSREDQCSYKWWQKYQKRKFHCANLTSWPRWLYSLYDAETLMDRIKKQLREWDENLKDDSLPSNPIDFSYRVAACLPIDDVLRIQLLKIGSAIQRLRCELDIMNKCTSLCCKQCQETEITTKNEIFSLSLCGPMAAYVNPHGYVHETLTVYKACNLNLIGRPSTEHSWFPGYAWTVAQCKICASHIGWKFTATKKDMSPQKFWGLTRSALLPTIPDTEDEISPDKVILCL
T1 sequence (Q16531 whole entry partner): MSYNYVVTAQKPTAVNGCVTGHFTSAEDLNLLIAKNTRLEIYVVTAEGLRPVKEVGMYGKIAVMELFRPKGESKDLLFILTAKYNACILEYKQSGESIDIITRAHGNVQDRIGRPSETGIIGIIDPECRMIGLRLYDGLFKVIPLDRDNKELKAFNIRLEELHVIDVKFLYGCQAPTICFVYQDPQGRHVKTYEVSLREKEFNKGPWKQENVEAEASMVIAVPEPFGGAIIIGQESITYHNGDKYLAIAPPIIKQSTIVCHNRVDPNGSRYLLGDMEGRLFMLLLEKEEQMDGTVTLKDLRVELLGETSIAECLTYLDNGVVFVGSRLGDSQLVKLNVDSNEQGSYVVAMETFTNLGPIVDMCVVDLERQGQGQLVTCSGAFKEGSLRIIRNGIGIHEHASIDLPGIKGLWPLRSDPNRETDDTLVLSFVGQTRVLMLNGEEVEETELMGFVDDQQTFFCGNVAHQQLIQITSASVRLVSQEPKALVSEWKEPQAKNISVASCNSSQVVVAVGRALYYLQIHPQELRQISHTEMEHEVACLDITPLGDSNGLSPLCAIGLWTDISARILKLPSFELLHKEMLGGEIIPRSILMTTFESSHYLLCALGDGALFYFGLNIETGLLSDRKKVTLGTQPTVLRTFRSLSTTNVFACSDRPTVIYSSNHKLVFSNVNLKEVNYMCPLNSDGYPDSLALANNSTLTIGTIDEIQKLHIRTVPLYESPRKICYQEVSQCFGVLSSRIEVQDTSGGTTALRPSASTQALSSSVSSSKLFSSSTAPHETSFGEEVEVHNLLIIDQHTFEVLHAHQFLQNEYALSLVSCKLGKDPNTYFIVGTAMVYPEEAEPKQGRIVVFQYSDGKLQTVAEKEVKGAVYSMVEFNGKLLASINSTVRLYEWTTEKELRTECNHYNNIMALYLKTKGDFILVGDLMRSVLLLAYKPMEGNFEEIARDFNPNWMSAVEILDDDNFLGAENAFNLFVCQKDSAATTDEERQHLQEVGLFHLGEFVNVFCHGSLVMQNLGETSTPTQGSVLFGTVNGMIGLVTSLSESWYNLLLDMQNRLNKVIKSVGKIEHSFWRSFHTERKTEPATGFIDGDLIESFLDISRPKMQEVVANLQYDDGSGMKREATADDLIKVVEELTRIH

For the compound `COc1ccc(C(=O)N2CCC(CCN3CCC(OCc4ccc(-c5cc6c(-c7cc(F)cc(NC(=O)N8CC(O)C(CC(C)C)C8)c7C)ncnc6[nH]5)cc4)CC3)CC2)cc1N1CCC(=O)NC1=O` (racemic) [Compound 4, (cis-rac)-N-(3-(6-(4-(((1-(2-(1-(3-(2,4-Dioxotetrahydropyrimidin-1 (2H)-yl)-4-methoxybenzoyl)piperidin-4-yl)ethyl)piperidin-4-yl)oxy)methyl)phenyl)-7H-pyrrolo[2,3-d]pyrimidin-4-yl)-5-fluoro-2-methylphenyl)-3-hydroxy-4-isobutylpyrrolidine-1-carboxamide], on BTK-GFP, the “BTK deg Amax %” value amounted to 1.9% and the DC50 came out at 1.5 nM. The GI50 in the experiment on TMD8 cells (Homo sapiens, TMD8, 72 h) turned out to be 0.34 nM. The GI50 in the experiment with OCI-LY3 cells (Homo sapiens, OCI-Ly3, 72 h) turned out to be 8220 nM.
On the same counts, the results for `COc1ccc(C(=O)N2CCC(CN3CCN(Cc4ccc(-c5cc6c(-c7cc(F)cc(NC(=O)N8CC(O)C(CC(C)C)C8)c7C)ncnc6[nH]5)cc4)CC3)CC2)cc1N1CCC(=O)NC1=O` (racemic) [Compound 9, (cis-rac)-N-(3-(6-(4-((4-((1-(3-(2,4-Dioxotetrahydropyrimidin-1 (2H)-yl)-4-methoxybenzoyl)piperidin-4-yl)methyl)piperazin-1-yl)methyl)phenyl)-7H-pyrrolo[2,3-d]pyrimidin-4-yl)-5-fluoro-2-methylphenyl)-3-hydroxy-4-isobutylpyrrolidine-1-carboxamide] are 6.3%, 1.7 nM, 0.75 nM and 7150 nM.
As to `COc1ccc(C(=O)N2CCC3(CCN(Cc4ccc(-c5cc6c(-c7cc(F)cc(NC(=O)N8CC(O)C(CC(C)C)C8)c7C)ncnc6[nH]5)cc4)CC3)CC2)cc1N1CCC(=O)NC1=O` (racemic) [Compound 23, (cis-rac)-N-(3-(6-(4-((9-(3-(2,4-Dioxotetrahydropyrimidin-1(2H)-yl)-4-methoxybenzoyl)-3,9-diazaspiro[5.5]undecan-3-yl)methyl)phenyl)-7H-pyrrolo[2,3-d]pyrimidin-4-yl)-5-fluoro-2-methylphenyl)-3-hydroxy-4-isobutylpyrrolidine-1-carboxamide], at BTK-GFP, the “BTK deg Amax %” value is given as 3.3% and half-maximal degradation (DC50) was put at 6.1 nM. Further, in the experiment with TMD8 cells (72 h), the GI50 was determined as 2.36 nM. The concentration for 50% growth inhibition (GI50) in the experiment with OCI-LY3 cells (72 h) was above 10000 nM.
On to `COc1ccc(C(=O)N2CCC(CCN3CCC(Oc4ccc(-c5cc6c(-c7cc(F)cc(NC(=O)N8C[C@H](CC(C)C)[C@@H](O)C8)c7C)ncnc6[nH]5)cc4)CC3)CC2)cc1N1CCC(=O)NC1=O` [Compound 3, (3R,4S)—N-(3-(6-(4-((1-(2-(1-(3-(2,4-Dioxotetrahydropyrimidin-1(2H)-yl)-4-methoxybenzoyl)piperidin-4-yl)ethyl)piperidin-4-yl)oxy)phenyl)-7H-pyrrolo[2,3-d]pyrimidin-4-yl)-5-fluoro-2-methylphenyl)-3-hydroxy-4-isobutylpyrrolidine-1-carboxamide], for which, at BTK-GFP, the “BTK deg Amax %” value came out at 3% and half-maximal degradation (DC50) was put at 0.8 nM. The GI50 in the experiment on TMD8 cells (Homo sapiens, TMD8, 72 h) came to 0.19 nM. The GI50 in the experiment with OCI-LY3 cells (Homo sapiens, OCI-Ly3, 72 h) worked out at 4480 nM.
On the same counts, the results for `COc1ccc(C(=O)N2CCC3(CCN(CCc4ccc(-c5cc6c(-c7cc(F)cc(NC(=O)N8C[C@@H](CC(C)C)[C@@H](O)C8)c7C)ncnc6[nH]5)cc4)CC3)CC2)cc1N1CCC(=O)NC1=O` [Compound 7, (3R,4R)—N-(3-(6-(4-(2-(9-(3-(2,4-Dioxotetrahydropyrimidin-1(2H)-yl)-4-methoxybenzoyl)-3,9-diazaspiro[5.5]undecan-3-yl)ethyl)phenyl)-7H-pyrrolo[2,3-d]pyrimidin-4-yl)-5-fluoro-2-methylphenyl)-3-hydroxy-4-isobutylpyrrolidine-1-carboxamide] are 3.7%, 1.5 nM, 0.28 nM and above 10000 nM.
On the same counts, the results for `COc1ccc(C(=O)N2CCC(CN3CCC(COc4ccc(-c5cc6c(-c7cc(F)cc(NC(=O)N8C[C@H](CC(C)C)[C@@H](O)C8)c7C)ncnc6[nH]5)cc4)CC3)CC2)cc1N1CCC(=O)NC1=O` [Compound 14, (3R,4S)—N-(3-(6-(4-((1-((1-(3-(2,4-Dioxotetrahydropyrimidin-1 (2H)-yl)-4-methoxybenzoyl)piperidin-4-yl)methyl)piperidin-4-yl)methoxy)phenyl)-7H-pyrrolo[2,3-d]pyrimidin-4-yl)-5-fluoro-2-methylphenyl)-3-hydroxy-4-isobutylpyrrolidine-1-carboxamide] are 3.4%, 0.7 nM, 0.24 nM and 3820 nM.

Values taken from patent publication US11541056B2, “3-hydroxy-N-(3-(7H-pyrrolo[2,3-d]pyrimidin-4-yl)phenyl)pyrrolidine-1-carboxamide derivatives” (NOVARTIS AG, priority 2018, dated 2023).
